Experimental data as given in publication PMC11513842, “Development of an orally bioavailable CDK12/13 degrader and induction of synthetic lethality with AKT pathway inhibition” (Cell Reports Medicine, 2024).
Read-outs that look alike come from different tables or passages of the source.

Legend:
CDK12 and CDK13 = details: VCaP cells
Protocol: After treatment of varying conditions, cell lysates were prepared using RIPA buffer (ThermoFisher Scientific) supplemented with cOmplete protease inhibitor cocktail tablets (Sigma-Aldrich). The Pierce BCA Protein Assay Kit ([…]) was used to determine the protein concentrations. Proteins with an equal amount from each sample were loaded on NuPAGE 3–8% Tris-Acetate or 4–12% Bis-Tris protein gels (ThermoFisher Scientific) and subsequently transferred to membranes, which were blocked using 5% nonfat milk. Following blocking at room temperature for 1 h, the membrane was further incubated with varying primary antibodies at 4°C overnight. HRP-conjugated secondary antibodies were used for detection, and membrane imaging was conducted using an Odyssey Fc Imager (LI-COR Biosciences).

[1] = Pharmacokinetic profile in Sprague Dawley rats; assay type: in vivo, rat; details: Sprague-Dawley, rat, plasma, SD rats; for AUC(0-t): read-out: AUC(0-t); for Tmax: read-out: Tmax
[2] = Body weight of treated animals in tumor models; assay type: in vivo, mouse; details: all tumor models (castrated VCaP, WA74 PDX, PC310 PDX), i.v. 30 mg/kg
Protocol: (§1) Six-week-old male CB17SCID mice obtained from Charles River (Stock # 236), were used to establish subcutaneous tumors on both dorsal flanks. Tumor dimensions were measured biweekly using digital calipers, applying the formula (π/6) (L × W^2), where L and W represent tumor length and width, respectively. At the study conclusion, mice were euthanized, and tumors were excised and weighed. The University of Michigan Institutional Animal Care and Use Committee (IACUC) approved all in vivo studies.
(§2) For the VCaP castration-resistant tumor model, 3×10^6 VCaP cells were subcutaneously injected into both dorsal flanks of mice using a serum-free medium mixed with 50% Matrigel (BD Biosciences). Upon tumors reaching palpable size (∼200 mm^3), animals underwent castration. When tumors regrew to their pre-castration size, mice were randomized for treatment with 30 mg/kg YJ9069 or vehicle via intravenous injection or 100 mg/kg YJ1206 or vehicle, with or without 15 mg/kg uprosertib by oral gavage. Treatments were administered three times weekly for three to four weeks.
For the 22Rv1 castration-resistant tumor model, mice underwent castration and then 12 days of recovery. Subsequently, 1 × 10^6 22Rv1 cells were subcutaneously injected into both dorsal flanks using a serum-free medium with 50% Matrigel (BD Biosciences). […]

[3] = Pharmacokinetic profile in CD-1 mice; assay type: in vivo; details: plasma, CD-1 mouse; for AUC: read-out: AUC(0-⊠)
VCaP cells = test: Cell viability assay (CellTiter-Glo, 5 days); assay type: cell-based, human; details: Homo sapiens, VCaP
Protocol: (§3) Cells were seeded in 96-well plates and incubated at 37°C with 5% CO2 overnight. A series of compound dilutions were added into the cells. After 5 days incubation, cell proliferation was tested using the CellTiter-Glo assay (Promega) according to the manufacturer’s protocol. Luminescence was measured using the Infinite M1000 Pro plate reader (Tecan). Data analysis was conducted using GraphPad Prism software.

prostate cancer cells = test: Cell viability, prostate cancer cells; assay type: cell-based; details: Homo sapiens, Figure 3A
Protocol: as §3

[4] = tested on: castrated VCaP xenograft (VCaP-CRPC); test: VCaP castration-resistant prostate cancer xenograft efficacy; assay type: in vivo, mouse; details: i.v. 30 mg/kg 3x/week, 18 days
Protocol: as §1
as §2, with “with or without 15 mg/kg uprosertib by oral gavage. Treatments were administered three times weekly for three to four weeks.” left out

[5] = tested on: benign immortalized cell lines (PrEC, WPMY-1, BPH-1, RWPE1, PNT2, MCF10A, MCF12A); test: Cell viability, benign immortalized cell lines; assay type: cell-based; details: Homo sapiens, 120 h; most benign immortalized cell lines, 5 days; read-out: half-maximal inhibitory concentration [IC50]
Protocol: as §3

[6] = tested on: normal and non-neoplastic cells; test: Cell viability screening, panel of 155 normal and cancer cell lines; assay type: cell-based; details: Homo sapiens, 120 h, 5 days, Figure 1G
Protocol: as §3

[7] = tested on: androgen receptor (AR)-positive prostate and breast cancer cells; test: as above; assay type: cell-based; details: Homo sapiens, 120 h, 5 days, Figure 1G
Protocol: as §3

[8] = Toxicity study in CD-1 immune-competent mice; assay type: in vivo, mouse
PC310 PDX = test: PC310 patient-derived xenograft efficacy; assay type: in vivo, mouse; details: i.v. 30 mg/kg 3x/week
Protocol: as §1
WA74 PDX model was developed at the University of Michigan during collection of a rapid autopsy case as part of the Michigan Legacy Tissue Program (MLTP). PC310 PDX model was obtained from Erasmus Medical Center, Rotterdam, the Netherlands. Both PDX lines were propagated in male CB17SCID mice by surgically implanting 2 mm^3 tumor fragments, coated with 100% Matrigel, into both flanks of mice. When tumors reached approximately 200 mm^3, mice were randomized into treatment groups. These groups received either 30 mg/kg YJ9069 via intravenous injection or 100 mg/kg YJ1206 by oral gavage, both administered three times per week, with or without 15 mg/kg uprosertib by oral gavage five days per week for 3–4 weeks. In accordance with IACUC guidelines, the maximum tumor size was limited to 2.0 cm in any dimension, and mice were euthanized if xenografts reached this endpoint.

PC310 organoids = test: PC310 organoid viability dose-response; assay type: cell-based; details: Homo sapiens, Figure S1J

With O=C1CCC(N2C(=O)c3cccc(OCC(=O)N4CCN(c5ccc(N(C(=O)NCc6ccccc6)C6CCC(Nc7ncc8ccccc8n7)CC6)cc5)CC4)c3C2=O)C(=O)N1 (stereo not drawn) [YJ9069] the “CDK12/13 degradation (immunoblot)” value (CDK12 and CDK13) was “enhanced degradation of both CDK12 and CDK13 proteins compared to 7f”, the Cmax ([1]; iv, i.v. 2.5 mg/kg) was 4130 nM and the clearance ([1]; iv, i.v. 2.5 mg/kg) was 14.1 mL/min/kg. It also gave a half-life ([1]; iv, i.v. 2.5 mg/kg) of 4.39 h, an AUC ([1]; iv, i.v. 2.5 mg/kg, read-out: AUC(0-)) of 2970 ng·h/mL and an AUC(0-t) ([1]; iv, i.v. 2.5 mg/kg) of 2930 ng·h/mL. It also gave a Tmax ([1]; iv, i.v. 2.5 mg/kg) of 0.08 h, a Cmax ([1]; oral 10 mg/kg) of 6 nM and a bioavailability ([1]; oral 10 mg/kg vs i.v. 2.5 mg/kg, read-out: F(%) (bioavailability by oral gavage)) of 0.04%. The AUC(0-t) ([1]; oral 10 mg/kg) was 5.06 ng·h/mL, the Tmax ([1]; oral 10 mg/kg) was 1.56 h and the “body weight loss in the treated animals” value [2] was “less than 20%”. The AUC(0-t) ([3]; iv, i.v. 2.5 mg/kg) was 3150 ng·h/mL, the Cmax ([3]; iv, i.v. 2.5 mg/kg) was 3650 ng/mL and the Tmax ([3]; iv, i.v. 2.5 mg/kg) was 0.08 h. The clearance ([3]; iv, i.v. 2.5 mg/kg) was 13.1 mL/min/kg, the half-life ([3]; iv, i.v. 2.5 mg/kg) was 5.23 h and the AUC ([3]; iv, i.v. 2.5 mg/kg) was 3220 ng·h/mL. For the same compound, the bioavailability ([3]; oral, p.o. 10 mg/kg vs i.v. 2.5 mg/kg, read-out: F% (oral bioavailability)) was 1.02%, the AUC(0-t) ([3]; po, p.o. 10 mg/kg) was 128 ng·h/mL and the Cmax ([3]; po, p.o. 10 mg/kg) was 55 ng/mL. For the same compound, the Tmax ([3]; po, p.o. 10 mg/kg) was 0.25 h, the half-life ([3]; po, p.o. 10 mg/kg) was 2.44 h and the AUC ([3]; po, p.o. 10 mg/kg) was 145 ng·h/mL. For the same compound, the IC50 (VCaP cells; 120 h, VCaP cells, 5 days, Figure 4C, read-out: IC50) was 22.2 nM, the IC50 (VCaP cells; 120 h, VCaP cells, 5 days, Figure S1E, read-out: IC50) was 44 nM and the IC50 (VCaP cells; VCaP cell viability, linker optimization, Figure S4B, read-out: VCaP IC50) was 22.9 nM. The IC50 (prostate cancer cells) was < 200 nM, the “treated animals with tumor regression exceeding 50%” value ([4]; VCaP-CRPC) was 73% and the “partial response (PR), waterfall plot (RECIST)” value ([4]; castrated VCaP) was 82%. For the same compound, the “stable disease (SD), waterfall plot (RECIST)” value ([4]; castrated VCaP) was 18%, the IC50 [5] was > 10000 nM and the IC50 [6] was > 10000 nM. For the same compound, the IC50 [7] was < 500 nM, the toxicity ([8]; CD-1 female mice) was “no significant toxicity was observed” and the “genitourinary (GU) weight” value ([8]; CD-1 male mice) was “decrease in genitourinary (GU) weight”. For the same compound, the “serum chemistry and complete blood analyses” value ([8]; CD-1 male mice) was “no significant changes”, the body weight loss ([8]; CD-1 male mice, doses of 30 mg/kg and 50 mg/kg, 3x/week) was 10% and the toxicity in vivo ([8]; administered intravenously) was “mild to intermediate toxicity”. For the same compound, the “progressive disease (PD), waterfall plot (RECIST)” value (PC310 PDX) was 63%, the “stable disease (SD), waterfall plot (RECIST)” value (PC310 PDX) was 31% and the IC50 (PC310 organoids) was 107 nM.
